Measurements from PMC7985445, “Characterization of Plasmodium falciparum Pantothenate Kinase and Identification of Its Inhibitors From Natural Products” (Frontiers in Cellular and Infection Microbiology, 2021).
Read-outs that look alike come from different tables or passages of the source.

How the values were obtained:
[1] = molecular target: T1, PfPanK1 (Plasmodium falciparum, UniProt Q8ILP4); test: Screening of natural compounds for PfPanK inhibitors and IC50 determination (recombinant enzyme, ADP Hunter Plus); format: biochemical
T1 sequence (Q8ILP4 1-519): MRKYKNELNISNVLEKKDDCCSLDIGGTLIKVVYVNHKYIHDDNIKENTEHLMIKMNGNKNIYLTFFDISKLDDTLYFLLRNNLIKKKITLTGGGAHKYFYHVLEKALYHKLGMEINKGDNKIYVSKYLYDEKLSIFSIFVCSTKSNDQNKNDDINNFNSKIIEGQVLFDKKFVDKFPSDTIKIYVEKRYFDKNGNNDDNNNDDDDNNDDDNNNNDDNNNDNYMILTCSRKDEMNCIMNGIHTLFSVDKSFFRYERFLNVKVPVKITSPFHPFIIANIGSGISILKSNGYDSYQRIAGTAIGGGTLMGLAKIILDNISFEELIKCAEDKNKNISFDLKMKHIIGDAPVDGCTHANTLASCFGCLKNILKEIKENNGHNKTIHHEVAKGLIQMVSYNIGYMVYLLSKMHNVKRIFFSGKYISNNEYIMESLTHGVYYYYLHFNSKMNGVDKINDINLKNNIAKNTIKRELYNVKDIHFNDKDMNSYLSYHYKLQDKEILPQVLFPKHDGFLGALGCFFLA
Experimental: We screened 247 compounds from the Kitasato Natural Products Library ([Mori et al., 2015]; [Nurkanto et al., 2018]) against PfPanK recombinant enzyme. Compounds were dissolved in 50% DMSO at a final concentration of 1 mg/ml.

[2] = system: Plasmodium falciparum sensitive strain 3D7; test: P. falciparum asexual blood stage growth, diaphorase-coupled LDH assay; format: cell-based; details: 3D7, 72 h incubation, mean ± SEM, read-out: IC50 P. falciparum erythrocytic stages
Experimental: Before using, parasite culture was synchronized with 5% (w/v) d-sorbitol, as previously described ([Lambros and Vanderberg, 1979]). Ring stage 0.3% parasitemia (25 µl/well) were placed in a 384-well plate. Serial dilutions (50, 25, 12.5, 6.3, 3.1, 1.6, 0.8, and 0.4 μM) of each compound were used for calculating IC50. As the negative growth control, 50 µM of Mefloquine and 20 µM of Atovaquone were used. After 72 h of incubation, parasite growth was determined by diaphorase-coupled lactate dehydrogenase (LDH) assay, as previously described ([Hartuti et al., 2018]). Each well’s absorbance was measured at 650 nm using SpectraMax Paradigm®Multi-Mode microplate reader (Molecular Devices, San Jose, CA, USA). The IC50 values were analyzed and calculated with GraphPad PRISM 8.0 (San Diego, California USA).

[3] = system: P. falciparum K1 and FCR3 strain; details: ref Ui et al., 2007, read-out: IC50 P. falciparum erythrocytic stages, cited from earlier work
[4] = system: various human cell lines; parameters: method as in Koizumi et al., 2009; details: ref Koizumi et al., 2009; cited from earlier work
[5] = recombinant PfPanK1; mean ± SEM

| Compound | inhibition ([1]; primary screening; 37°C, 2 h) [%] | IC50 [1, 5] [nM] | IC50 [2] [nM] | inhibition ([1]; 2 h, primary screening; 37°C) [%] | IC50 ([3]; FCR3 strain) [nM] | IC50 ([3]; K1 strain) [nM] | EC50 [4] [nM] |
| --- | --- | --- | --- | --- | --- | --- | --- |
| OC[C@H]1O[C@@H](Oc2ccc(/C=C/c3cc(O)c4c(c3)O[C@H](c3ccc(O)cc3)[C@H]4c3cc(O)cc(O)c3)cc2)[C@H](O)[C@@H](O)[C@@H]1O [Gnemonoside D] | 85 | 57500 ± 3600 | 1900 ± 600 |  |  |  |  |
| COc1c2c(c(O)c3c(=O)c4c(oc13)[C@@H](O)CC[C@@H]4O)-c1c3c(c4cc(C)n(C)c(=O)c4c1O)OCO[C@H]3C2 [Simaomicin α] |  | 57600 ± 4800 |  | 76.9 | 0.018 | 0.083 | 0.3 to 19 |
